Legend:
[1] = tested on: NCI-H1975 cells EGFR L858R/T790M; test: NCI-H1975 cell viability assay (Cell Titer-Glo, 6 days); type: cell-based; settings: Homo sapiens, 144 h
Experimental: (§1) RPMI1640, fetal bovine serum, penicillin/streptomycin solution were purchased from Life Technology (Madison, Wis.). Cell Titer-Glo luminescent cell viability reagents were purchased from Promega (Madison, Wis.). A431 cell line and NCI-H1975 cell line were purchased from European Collection of Cell Cultures (ECACC). Plate Reader Instrument: Envision (PerkinElmer).
(§2) 384-Well plates, 300 of A431 cells and NCI-H1975 cells were inoculated per well, a volume of which was 45 μL. And the plates were incubated overnight in a CO2 incubator at 37° C. The test compound was diluted 3-fold to obtain 10 dose concentrations, the final concentrations of which were from 10 μM to 0.508 nM, two wells. The middle plates were filled with 49 μL of medium per well. 1 μL of compound in the gradient dilution compound plates was transferred to the middle plates and mixed well. And then 5 μL liquid in the middle plates was taken to the cell plates. The cells were incubated in a CO2 incubator for 6 days. After 6 days, 25 μL of detection reagents was added. And then the mixture was incubated at room temperature for 10 minutes and the plates were read by Envision.
(§3) The reading is converted to the suppression rate by the following formula (%) (Max-Sample)/(Max-Min)*100%. IC50 Data was measured by Four-parameter curve fitting (Model 205 in XLFIT5, IDBS).

EGFR d746-750/T790M = target: T1, EGFR d746-750/T790M (Homo sapiens, UniProt P00533, DEL746-750/T790M); test: EGFR d746-750/T790M enzyme HTRF inhibition assay; type: biochemical; settings: 40 μM ATP
T1 construct: purchased Carna Biosciences (Japan)
Experimental: (§4) Enzyme: EGFR wild type, EGFR T790M/L858R, EGFR T790M and INSR were purchased from Life technology (Madison, Wis.), EGFR d746-750/T790M was purchased from Carna Biosciences (Japan).
(§5) HTRF Kit was purchased from Cis-Bio International which contained the Eu-labeled TK1 antibody, XL665 and biotin-labeled TK1 polypeptide substrates.
(§6) Detecting instrument: Envision (PerkinElmer).
(§7) The test compound was diluted 3-fold to obtain 10 doses of which the final concentration was from 300 nM to 0.015 nM.
EGFR d746-750/T790M Enzyme Reaction Mixture System:
0.025 nM EGFR d746-750/T790M, 1 μM biotin-TK1 peptide, 40 μM ATP enzyme buffer, a total of which was 10 μL. The reaction plate was white Proxiplate 384-Plus plate (PerkinElmer) and the mixture was reacted at 23° C. for 60 minutes.
(§8) Reaction Detection: 10 μL of detection reagent containing Antibody 2 nM and XL665 62.5 nM was added, and the reagent was incubated at 23° C. for 60 minutes. The plates were read by Envision.
(§9) The reading is converted to the suppression rate (%) by the following formula […]/(Max-Min)*100%. IC50 Data was measured by four-parameter curve fitting (Model 205 in XLFITS, IDBS).

A431 cells EGFR WT = test: A431 cell viability assay (Cell Titer-Glo, 6 days); type: cell-based, human; settings: for IC50: Homo sapiens, A-431, 144 h, A431 cells, 6 days; for A431:NCI-H1975 (ratio): ratio of cell IC50 A431 to NCI-H1975
Experimental: as §1, §2, §3

EGFR T790M/L858R = target: T2, EGFR T790M/L858R (Homo sapiens, UniProt P00533, L858R/T790M); test: EGFR T790M/L858R enzyme HTRF inhibition assay; type: biochemical; settings: 20 μM ATP, read-out: EGFR L858R/T79M IC50
T2 construct: purchased Life technology (Madison, Wis.)
Experimental: as §4, §5, §6, §7
EGFR T790M/L858R Enzyme Reaction Mixture System:
0.04 nM EGFR T790M/L858R, 1 μM biotin-TK1 peptide, 20 μM ATP enzyme buffer, a total of which was 10 μL. The reaction plate was white Proxiplate 384-Plus plate (PerkinElmer) and the mixture was reacted at 23° C. for 60 minutes.
as §8, §9

EGFR wild type = target: T3, EGFR wild type (Homo sapiens, UniProt P00533); test: Wild-type EGFR enzyme HTRF inhibition assay; type: biochemical; settings: 25 μM ATP, read-out: EGFR WT IC50
T3 construct: purchased Life technology (Madison, Wis.)
Experimental: as §4, §5, §6, §7
Wild-Type EGFR Enzyme Reaction Mixture System:
0.05 nM Wild-type EGFR, 1 μM biotin-TK1 peptide, 25 μM ATP enzyme buffer, a total of which was 10 μL. The reaction plate was white Proxiplate 384-Plus plate (PerkinElmer) and the mixture was reacted at 23° C. for 60 minutes.
as §8, §9

T3 sequence (P00533 25-1210): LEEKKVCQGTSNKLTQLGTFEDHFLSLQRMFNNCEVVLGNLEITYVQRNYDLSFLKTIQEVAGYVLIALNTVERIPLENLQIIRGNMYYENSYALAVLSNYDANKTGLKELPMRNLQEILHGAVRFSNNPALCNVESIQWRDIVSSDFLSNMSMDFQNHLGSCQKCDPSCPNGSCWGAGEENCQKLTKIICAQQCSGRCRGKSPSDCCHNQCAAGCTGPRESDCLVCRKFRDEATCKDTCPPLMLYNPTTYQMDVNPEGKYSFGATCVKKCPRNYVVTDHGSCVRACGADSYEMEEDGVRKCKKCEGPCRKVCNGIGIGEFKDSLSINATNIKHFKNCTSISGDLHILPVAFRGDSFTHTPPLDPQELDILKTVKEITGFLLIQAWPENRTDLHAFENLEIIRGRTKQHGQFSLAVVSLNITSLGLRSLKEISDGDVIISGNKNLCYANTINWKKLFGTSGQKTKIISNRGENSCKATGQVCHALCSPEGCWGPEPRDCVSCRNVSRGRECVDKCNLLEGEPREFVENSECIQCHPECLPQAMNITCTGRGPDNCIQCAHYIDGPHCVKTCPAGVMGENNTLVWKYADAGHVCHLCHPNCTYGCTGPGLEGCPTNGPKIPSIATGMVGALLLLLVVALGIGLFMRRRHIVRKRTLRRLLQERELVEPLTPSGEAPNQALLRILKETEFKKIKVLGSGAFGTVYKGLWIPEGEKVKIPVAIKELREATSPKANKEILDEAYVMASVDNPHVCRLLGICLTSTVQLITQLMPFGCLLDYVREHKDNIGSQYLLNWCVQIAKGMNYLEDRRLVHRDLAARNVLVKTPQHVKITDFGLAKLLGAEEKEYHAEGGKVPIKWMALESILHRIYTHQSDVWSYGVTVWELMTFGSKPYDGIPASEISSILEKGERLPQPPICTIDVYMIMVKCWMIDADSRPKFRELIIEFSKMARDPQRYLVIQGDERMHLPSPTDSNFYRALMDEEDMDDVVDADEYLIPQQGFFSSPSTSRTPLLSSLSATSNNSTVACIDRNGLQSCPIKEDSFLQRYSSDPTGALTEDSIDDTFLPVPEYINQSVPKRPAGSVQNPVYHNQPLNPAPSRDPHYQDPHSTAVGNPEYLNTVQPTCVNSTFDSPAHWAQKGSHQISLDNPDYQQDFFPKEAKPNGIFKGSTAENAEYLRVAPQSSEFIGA
T1 sequence (P00533 with tags, fused parts or gaps DEL746-750/T790M limits assumed): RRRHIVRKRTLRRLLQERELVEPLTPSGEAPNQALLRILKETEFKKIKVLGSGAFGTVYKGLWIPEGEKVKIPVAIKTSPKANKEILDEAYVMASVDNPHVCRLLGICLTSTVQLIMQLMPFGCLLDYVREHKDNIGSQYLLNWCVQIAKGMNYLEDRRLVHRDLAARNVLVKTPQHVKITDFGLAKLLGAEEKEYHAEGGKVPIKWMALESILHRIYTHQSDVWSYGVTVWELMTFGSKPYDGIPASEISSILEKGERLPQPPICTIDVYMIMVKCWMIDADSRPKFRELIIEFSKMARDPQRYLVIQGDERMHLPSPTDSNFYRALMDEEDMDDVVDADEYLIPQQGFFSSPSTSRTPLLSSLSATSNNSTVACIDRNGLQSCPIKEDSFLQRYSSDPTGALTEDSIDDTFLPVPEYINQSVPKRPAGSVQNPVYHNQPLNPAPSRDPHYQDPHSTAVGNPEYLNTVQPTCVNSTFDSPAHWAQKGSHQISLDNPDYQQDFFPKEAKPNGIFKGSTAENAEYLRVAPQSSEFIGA
T2 sequence (P00533 25-1210 T790M/L858R): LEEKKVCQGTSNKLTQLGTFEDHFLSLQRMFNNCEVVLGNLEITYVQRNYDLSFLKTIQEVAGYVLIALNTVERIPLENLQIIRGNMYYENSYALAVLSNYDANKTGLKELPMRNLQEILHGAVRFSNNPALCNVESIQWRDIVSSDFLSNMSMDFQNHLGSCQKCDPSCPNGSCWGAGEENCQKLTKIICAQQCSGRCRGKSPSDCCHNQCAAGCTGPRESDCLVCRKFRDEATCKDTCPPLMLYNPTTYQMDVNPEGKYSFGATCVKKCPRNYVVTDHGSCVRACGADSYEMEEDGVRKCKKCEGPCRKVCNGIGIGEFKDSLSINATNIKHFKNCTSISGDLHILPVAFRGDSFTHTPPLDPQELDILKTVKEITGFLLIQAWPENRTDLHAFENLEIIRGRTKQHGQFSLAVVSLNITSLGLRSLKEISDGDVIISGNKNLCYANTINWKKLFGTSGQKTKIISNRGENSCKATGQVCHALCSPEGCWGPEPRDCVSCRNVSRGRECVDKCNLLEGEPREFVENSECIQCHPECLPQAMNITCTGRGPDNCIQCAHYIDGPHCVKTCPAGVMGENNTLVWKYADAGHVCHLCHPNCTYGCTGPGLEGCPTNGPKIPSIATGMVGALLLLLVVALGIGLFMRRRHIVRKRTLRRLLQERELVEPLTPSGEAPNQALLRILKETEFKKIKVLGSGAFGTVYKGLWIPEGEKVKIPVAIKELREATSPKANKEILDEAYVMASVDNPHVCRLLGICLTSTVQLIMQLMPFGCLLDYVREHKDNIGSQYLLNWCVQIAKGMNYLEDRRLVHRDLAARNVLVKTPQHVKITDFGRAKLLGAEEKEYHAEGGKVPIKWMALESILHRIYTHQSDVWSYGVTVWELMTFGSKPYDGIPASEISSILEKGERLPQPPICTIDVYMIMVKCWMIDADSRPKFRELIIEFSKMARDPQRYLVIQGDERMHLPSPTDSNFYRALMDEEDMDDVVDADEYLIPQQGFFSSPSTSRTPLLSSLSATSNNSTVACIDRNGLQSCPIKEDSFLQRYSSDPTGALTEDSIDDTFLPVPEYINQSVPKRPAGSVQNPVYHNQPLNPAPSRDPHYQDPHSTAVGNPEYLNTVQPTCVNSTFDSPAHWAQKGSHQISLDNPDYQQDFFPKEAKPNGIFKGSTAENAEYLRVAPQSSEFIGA

IC50 [1] [nM] | IC50 (EGFR d746-750/T790M) [nM] | IC50 (A431 cells EGFR WT) [nM] | IC50 (EGFR T790M/L858R) [nM] | IC50 (EGFR wild type) [nM] | SMILES | A431:NCI-H1975 (ratio) (A431 cells EGFR WT)
474 | 0.64 | 5460 | 0.91 | 5.22 | C=CC(=O)Nc1cc(Nc2nccc(-c3c4n(c5ccccc35)CCC4)n2)c(OC)cc1C#CCN(C)C [Embodiment 8, N-(5-((4-(2,3-Dihydro-1H-pyrrolo[1,2-a]indol-9-yl)pyrimidin-2-yl)amino)-2-(3-(dimethylamino)prop-1-yn-1-yl)-4-methoxyphenyl)acrylamide] | 11.5
111 | 0.51 | 1440 | 0.75 | 6.28 | C=CC(=O)Nc1cc(Nc2nccc(-c3c4n(c5ccccc35)CCC4)n2)c(OC)cc1CN1CCOCC1 [Embodiment 9, N-(5-((4-(2,3-Dihydro-1H-pyrrolo[1,2-a]indol-9-yl)pyrimidin-2-yl)amino)-4-methoxy-2-(morpholinomethyl)phenyl)acrylamide] | 13.0
283 | 1.89 | 2260 | 2.19 | 27.5 | C=CC(=O)Nc1cc(Nc2nccc(-c3c4n(c5ccccc35)CCC4)n2)c(OC)cc1CCCN(C)C [Embodiment 10] | 8.0
6.1 | 0.2 | 270 | 0.23 | 0.53 | C=CC(=O)Nc1cc(Nc2nccc(-c3c4n(c5ccccc35)CCC4)n2)c(OC)cc1N(C)C(C)CN(C)C (stereo not drawn) [Embodiment 11, N-(5-((4-(2,3-Dihydro-1H-pyrrolo[1,2-a]indol-9-yl)pyrimidin-2-yl)amino)-2-((1-(dimethylamino)propan-2-yl)(methyl)amino)-4-methoxyphenyl)acrylamide] | 44.3
4.8 | 0.31 | 369 | 0.33 | 0.43 | C=CC(=O)Nc1cc(Nc2nccc(-c3c4n(c5ccccc35)CCC4=O)n2)c(OC)cc1N(C)CCN(C)C [Embodiment 12, N-(2-((2-(Dimethylamino)ethyl)(methyl)amino)-4-methoxy-5-((4-(1-oxo-2,3-dihydro-1H-pyrrolo[1,2-a]indol-9-yl)pyrimidin-2-yl)amino)phenyl)acrylamide] | 76.9
5.4 | 0.18 | 545 | 0.24 | 0.65 | C=CC(=O)Nc1cc(Nc2nccc(-c3c4n(c5ccc(F)cc35)CCC4)n2)c(OC)cc1N(C)CCN(C)C [Embodiment 13, N-(2-((2-(Dimethylamino)ethyl)(methyl)amino)-5-((4-(7-fluoro-2,3-dihydro-1H-pyrrolo[1,2-a]indol-9-yl)pyrimidin-2-yl)amino)-4-methoxyphenyl) acrylamide] | 101.0
13 | 0.33 | 134 | 0.27 | 0.6 | C=CC(=O)Nc1cc(Nc2nccc(-c3c4n(c5ccccc35)CC(F)(F)CC4)n2)c(OC)cc1N(C)CCN(C)C [Embodiment 14, N-(5-((4-(7,7-Difluoro-8,9-dihydro-6H-pyrido[1,2-a]indol-10-yl)pyrimidin-2-yl)amino)-2-((2-(dimethylamino)ethyl)(methyl)amino)-4-methoxyphenyl)acrylamide] | 10.3
15 | 0.37 | 230 | 0.36 | 1.03 | C=CC(=O)Nc1cc(Nc2nccc(-c3c4n(c5ccccc35)CCCC4)n2)c(OC)cc1N(C)CCN(C)C [Embodiment 15, N-(2-((2-(Dimethylamino)ethyl)(methyl)amino)-4-methoxy-5-((4-(6,7,8,9-tetrahydropyrido[1,2-a]indol-10-yl)pyrimidin-2-yl)amino)phenyl)acrylamide] | 15.3
17 | 0.33 | 1060 | 0.29 | 4 | C=CC(=O)Nc1cc(Nc2nccc(-c3c4n(c5ccccc35)CCOC4)n2)c(OC)cc1N(C)CCN(CC)CC [Embodiment 16, N-(2-((2-(Diethylamino)ethyl)(methyl)amino)-5-((4-(3,4-dihydro-1H-[1,4]oxazino[4,3-a]indol-10-yl)pyrimidin-2-yl)amino)-4-methoxyphenyl)acrylamide] | 63
29 | 0.26 | 965 | 0.3 | 2.7 | C=CC(=O)Nc1cc(Nc2nccc(-c3c4n(c5ccccc35)CCOC4)n2)c(OC)cc1N(CC)CCN(C)C [Embodiment 19, N-(5-((4-(3,4-Dihydro-1H-[1,4]oxazino[4,3-a]indol-10-yl)pyrimidin-2-yl)amino)-2-((2-(dimethylamino)ethyl)(ethyl)amino)-4-methoxyphenyl)acrylamide] | 33
4 | 0.17 | 164 | 0.2 | 0.66 | C=CC(=O)Nc1cc(Nc2nccc(-c3c4n(c5ccccc35)CCOC4)n2)c(OC)cc1N(C)C(C)CN(C)C (stereo not drawn) [Embodiment 20, N-(5-((4-(3,4-Dihydro-1H-[1,4]oxazino[4,3-a]indol-10-yl)pyrimidin-2-yl)amino)-2-((1-(dimethylamino)propan-2-yl)(methyl)amino)-4-methoxyphenyl)acrylamide] | 41.0
172 | 1.3 | 2660 | 1.9 | 36.4 | C=CC(=O)Nc1cc(Nc2nccc(-c3c4n(c5ccccc35)CCOC4)n2)c(OC)cc1N(C)CCNC(C)(C)C [Embodiment 24, N-(2-((2-(tert-Butylamino)ethyl)(methyl)amino)-5-((4-(3,4-dihydro-1H-[1,4]oxazino[4,3-a]indol-10-yl)pyrimidin-2-yl)amino)-4-methoxyphenyl)acrylamide] | 15
11 | 0.2 | 517 | 0.2 | 1.5 | C=CC(=O)Nc1cc(Nc2nccc(-c3c4n(c5ccccc35)CCOC4)n2)c(OCC)cc1N(C)CCN(C)C [Embodiment 28, N-(5-((4-(3,4-Dihydro-1H-[1,4]oxazino[4,3-a]indol-10-yl)pyrimidin-2-yl)amino)-2-((2-(dimethylamino)ethyl)(methyl)amino)-4-ethoxyphenyl)acrylamide] | 47
25 | 0.38 | 1180 | 0.38 | 5.1 | C=CC(=O)Nc1cc(Nc2nccc(-c3c4n(c5ccccc35)CCOC4)n2)c(OC(C)C)cc1N(C)CCN(C)C [Embodiment 29, N-(5-((4-(3,4-Dihydro-1H-[1,4]oxazino[4,3-a]indol-10-yl)pyrimidin-2-yl)amino)-2-((2-(dimethylamino)ethyl)(methyl)amino)-4-isopropoxyphenyl)acrylamide] | 47
96 | 0.3 | 1290 | 0.2 | 2 | C=CC(=O)Nc1cc(Nc2ncc(F)c(-c3c4n(c5ccccc35)CCOC4)n2)c(OC)cc1N(C)CCNC [Embodiment 31, N-(5-((4-(3,4-Dihydro-1H-[1,4]oxazino[4,3-a]indol-10-yl)-5-fluoropyrimidin-2-yl)amino)-4-methoxy-2-(methyl(2-(methylamino)ethyl)amino)phenyl)acrylamide] | 13.4
